In patent US11426397B2, “Piperidinyl- and piperazinyl-substituted heteroaromatic carboxamides as modulators of GPR6” (TAKEDA PHARMACEUTICAL COMPANY LIMITED, priority 2017, dated 2022):

The molecules below were run against T1, GPR6 receptor expressed in CHO-K1 cells (Homo sapiens, UniProt P46095) (assay: In vitro inhibition of cAMP (EC50), cell-based HTRF cAMP assay). Conditions: inhibition of constitutive cAMP activity of GPR6 in CHO-K1 cells.
T1 construct: expressed in transfected cells
How it was run: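 Cellular cAMP measured by Lance Ultra HTRF (Eu-cAMP tracer, ULight anti-cAMP), with EC50 fitted by four-parameter logistic. Test compounds sat on cells 45 min, 37 °C, in pH 7.4 Ringer's with 300 μM IBMX and 0.5% BSA; GPR6 in CHO-K1 induced beforehand by doxycycline, 2 μg/mL, 20 h.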

T1 sequence (P46095 whole entry): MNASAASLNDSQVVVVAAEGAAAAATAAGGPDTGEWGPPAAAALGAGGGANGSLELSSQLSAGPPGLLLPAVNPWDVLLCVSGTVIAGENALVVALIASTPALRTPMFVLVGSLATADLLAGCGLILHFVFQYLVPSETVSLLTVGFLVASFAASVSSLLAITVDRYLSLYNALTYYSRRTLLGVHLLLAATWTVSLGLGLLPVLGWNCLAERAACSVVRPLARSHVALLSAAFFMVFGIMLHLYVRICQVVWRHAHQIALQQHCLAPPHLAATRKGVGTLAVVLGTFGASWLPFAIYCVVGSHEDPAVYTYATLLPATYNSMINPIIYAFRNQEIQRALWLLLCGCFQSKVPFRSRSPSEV

Row | pEC50, in vitro inhibition of cAMP | SMILES
1 | 7.1 | COc1ccc(C(=O)Nc2cc(C#N)ccc2N2CCC(Oc3ccc(F)cc3F)CC2)nc1 [Example 133, N-(5-cyano-2-(4-(2,4-difluorophenoxy)piperidin-1-yl)phenyl)-5-methoxypicolinamide]
2 | 5.8 | N#Cc1ccc(N2CCC(Oc3ccc(F)cc3F)CC2)c(NC(=O)c2cnsn2)c1 [Example 134, N-(5-cyano-2-(4-(2,4-difluorophenoxy)piperidin-1-yl)phenyl)-1,2,5-thiadiazole-3-carboxamide]
3 | 6.8 | Cc1cc(C(=O)Nc2cc(C#N)ccc2N2CCC(Oc3ccc(F)cc3F)CC2)nc(C)n1 [Example 135, N-(5-cyano-2-(4-(2,4-difluorophenoxy)piperidin-1-yl)phenyl)-2,6-dimethylpyrimidine-4-carboxamide]
4 | 6.8 | COc1ccc(C(=O)Nc2cc(C#N)ccc2N2CCC(Oc3ccc(F)cc3F)CC2)nn1 [Example 136, N-(5-cyano-2-(4-(2,4-difluorophenoxy)piperidin-1-yl)phenyl)-6-methoxypyridazine-3-carboxamide]
5 | 7.1 | Cc1nc(C(=O)Nc2cc(C#N)ccc2N2CCC(Oc3ccc(F)cc3F)CC2)ccc1F [Example 137, N-(5-cyano-2-(4-(2,4-difluorophenoxy)piperidin-1-yl)phenyl)-5-fluoro-6-methylpicolinamide]
6 | <4.5 | COc1ccnc(C(=O)Nc2cc(C#N)ccc2N2CCC(Oc3ccc(F)cc3F)CC2)n1 [Example 138, N-(5-cyano-2-(4-(2,4-difluorophenoxy)piperidin-1-yl)phenyl)-4-methoxypyrimidine-2-carboxamide]
7 | <4.5 | N#Cc1ccc(N2CCC(Oc3ccc(F)cc3F)CC2)c(NC(=O)c2cnon2)c1 [Example 139, N-(5-cyano-2-(4-(2,4-difluorophenoxy)piperidin-1-yl)phenyl)-1,2,5-oxadiazole-3-carboxamide]
8 | 7.2 | Cc1nccc(C(=O)Nc2cc(C#N)ccc2N2CCC(Oc3ccc(F)cc3F)CC2)n1 [Example 141, N-(5-cyano-2-(4-(2,4-difluorophenoxy)piperidin-1-yl)phenyl)-2-methylpyrimidine-4-carboxamide]
9 | 6.2 | COc1cnc(C(=O)Nc2cnc(C)cc2N2CCC(Oc3ccc(F)cc3F)CC2)cn1 [Example 142, N-(4-(4-(2,4-difluorophenoxy)piperidin-1-yl)-6-methylpyridin-3-yl)-5-methoxypyrazine-2-carboxamide]
10 | 6.8 | CCn1nc(C(=O)Nc2cc(C#N)ccc2N2CCC(Oc3ccc(F)cc3F)CC2)cc1C [Example 143, N-(5-cyano-2-(4-(2,4-difluorophenoxy)piperidin-1-yl)phenyl)-1-ethyl-5-methyl-1H-pyrazole-3-carboxamide]
11 | 6.9 | COc1nccc(C(=O)Nc2cc(C#N)ccc2N2CCC(Oc3ccc(F)cc3F)CC2)n1 [Example 144]
12 | 6.6 | Cn1cc(C(=O)Nc2cc(C#N)ccc2N2CCC(Oc3ccc(F)cc3F)CC2)nn1 [Example 145, N-(5-cyano-2-(4-(2,4-difluorophenoxy)piperidin-1-yl)phenyl)-1-methyl-1H-1,2,3-triazole-4-carboxamide]
13 | 6.6 | Cc1ccc(C(=O)Nc2cc(C#N)ccc2N2CCC(Oc3ccc(F)cc3F)CC2)nn1 [Example 146, N-(5-cyano-2-(4-(2,4-difluorophenoxy)piperidin-1-yl)phenyl)-6-methylpyridazine-3-carboxamide]
14 | 6.9 | COc1ncc(C)cc1C(=O)Nc1cc(C(=O)N(C)C)cnc1N1CCC(Oc2ccc(F)cc2F)CC1 [Example 147, 6-(4-(2,4-difluorophenoxy)piperidin-1-yl)-5-(2-methoxy-5-methylnicotinamido)-N,N-dimethylnicotinamide]
15 | 7.2 | COc1ncccc1C(=O)Nc1cc(C(=O)N(C)C)cnc1N1CCC(Oc2ccc(F)cc2F)CC1 [Example 148, 6-(4-(2,4-difluorophenoxy)piperidin-1-yl)-5-(2-methoxynicotinamido)-N,N-dimethylnicotinamide]
16 | 5.8 | Cn1cc2ccc(NC(=O)c3ccccn3)c(N3CCC(Oc4ccc(F)cc4F)CC3)c2n1 [Example 149, N-(7-(4-(2,4-difluorophenoxy)piperidin-1-yl)-2-methyl-2H-indazol-6-yl)picolinamide]
17 | <5.7 | O=C(Nc1ccc2nccnc2c1N1CCC(Oc2ccc(F)cc2F)CC1)c1ccccn1 [Example 150, N-(5-(4-(2,4-difluorophenoxy)piperidin-1-yl)quinoxalin-6-yl)picolinamide]

More lines, now with the values behind:

Row | SMILES | pEC50, in vitro inhibition of cAMP
18 | Cc1cnc(C(=O)Nc2cc(C#N)ccc2N2CCC(Oc3ccc(F)cc3F)CC2)c(C)n1 [Example 114, N-(5-cyano-2-(4-(2,4-difluorophenoxy)piperidin-1-yl)phenyl)-3,5-dimethylpyrazine-2-carboxamide] | 6.1
19 | Cc1nccnc1C(=O)Nc1cc(C#N)ccc1N1CCC(Oc2ccc(F)cc2F)CC1 [Example 115, N-(5-cyano-2-(4-(2,4-difluorophenoxy)piperidin-1-yl)phenyl)-3-methylpyrazine-2-carboxamide] | 6.6
20 | N#Cc1ccc(N2CCC(Oc3ccc(F)cc3F)CC2)c(NC(=O)c2csnn2)c1 [Example 116, N-(5-cyano-2-(4-(2,4-difluorophenoxy)piperidin-1-yl)phenyl)-1,2,3-thiadiazole-4-carboxamide] | 5.9
21 | N#Cc1ccc(N2CCC(Oc3ccc(F)cc3F)CC2)c(NC(=O)c2ccon2)c1 [Example 117, N-(5-cyano-2-(4-(2,4-difluorophenoxy)piperidin-1-yl)phenyl)isoxazole-3-carboxamide] | 6.3
22 | CCc1cc(C(=O)Nc2cc(C#N)ccc2N2CCC(Oc3ccc(F)cc3F)CC2)no1 [Example 118, N-(5-cyano-2-(4-(2,4-difluorophenoxy)piperidin-1-yl)phenyl)-5-ethylisoxazole-3-carboxamide] | 6.4
23 | Cc1nonc1C(=O)Nc1cc(C#N)ccc1N1CCC(Oc2ccc(F)cc2F)CC1 [Example 119, N-(5-cyano-2-(4-(2,4-difluorophenoxy)piperidin-1-yl)phenyl)-4-methyl-1,2,5-oxadiazole-3-carboxamide] | <5.7
24 | CCn1ncc(C(=O)Nc2cc(C#N)cnc2N2CCC(Oc3ccc(F)cc3F)CC2)c1OC [Example 120, N-(5-cyano-2-(4-(2,4-difluorophenoxy)piperidin-1-yl)pyridin-3-yl)-1-ethyl-5-methoxy-1H-pyrazole-4-carboxamide] | 7.4
25 | CCOc1c(C(=O)Nc2cc(C#N)cnc2N2CCC(Oc3ccc(F)cc3F)CC2)cnn1C [Example 121, N-(5-cyano-2-(4-(2,4-difluorophenoxy)piperidin-1-yl)pyridin-3-yl)-5-ethoxy-1-methyl-1H-pyrazole-4-carboxamide] | 6.7
26 | N#Cc1ccc(N2CCC(Oc3ccc(F)cc3F)CC2)c(NC(=O)c2cocn2)c1 [Example 122, N-(5-cyano-2-(4-(2,4-difluorophenoxy)piperidin-1-yl)phenyl)oxazole-4-carboxamide] | 6.1
27 | Cc1cnc(C(=O)Nc2cc(C#N)ccc2N2CCC(Oc3ccc(F)cc3F)CC2)cn1 [Example 123, N-(5-cyano-2-(4-(2,4-difluorophenoxy)piperidin-1-yl)phenyl)-5-methylpyrazine-2-carboxamide] | 6.5
28 | Cc1ccc(C(=O)Nc2cc(C#N)ccc2N2CCC(Oc3ccc(F)cc3F)CC2)nc1 [Example 124, N-(5-cyano-2-(4-(2,4-difluorophenoxy)piperidin-1-yl)phenyl)-5-methylpicolinamide] | 6.9
29 | N#Cc1ccc(N2CCC(Oc3ccc(F)cc3F)CC2)c(NC(=O)c2cc(C3CC3)on2)c1 [Example 125, N-(5-cyano-2-(4-(2,4-difluorophenoxy)piperidin-1-yl)phenyl)-5-cyclopropylisoxazole-3-carboxamide] | 6.7
30 | N#Cc1ccc(N2CCC(Oc3ccc(F)cc3F)CC2)c(NC(=O)c2cccnn2)c1 [Example 126, N-(5-cyano-2-(4-(2,4-difluorophenoxy)piperidin-1-yl)phenyl)pyridazine-3-carboxamide] | 6.3
31 | Cc1ocnc1C(=O)Nc1cc(C#N)ccc1N1CCC(Oc2ccc(F)cc2F)CC1 [Example 127, N-(5-cyano-2-(4-(2,4-difluorophenoxy)piperidin-1-yl)phenyl)-5-methyloxazole-4-carboxamide] | 6.1
32 | N#Cc1ccc(N2CCC(Oc3ccc(F)cc3F)CC2)c(NC(=O)c2ccsn2)c1 [Example 128, N-(5-cyano-2-(4-(2,4-difluorophenoxy)piperidin-1-yl)phenyl)isothiazole-3-carboxamide] | 6.6
33 | COc1cncc(C(=O)Nc2cc(C#N)ccc2N2CCC(Oc3ccc(F)cc3F)CC2)n1 [Example 129, N-(5-cyano-2-(4-(2,4-difluorophenoxy)piperidin-1-yl)phenyl)-6-methoxypyrazine-2-carboxamide] | 7.2
34 | Cc1cncc(C(=O)Nc2cc(C#N)ccc2N2CCC(Oc3ccc(F)cc3F)CC2)n1 [Example 130, N-(5-cyano-2-(4-(2,4-difluorophenoxy)piperidin-1-yl)phenyl)-6-methylpyrazine-2-carboxamide] | 7.1
35 | Cc1onc(C(=O)Nc2cc(C#N)ccc2N2CCC(Oc3ccc(F)cc3F)CC2)c1C [Example 131, N-(5-cyano-2-(4-(2,4-difluorophenoxy)piperidin-1-yl)phenyl)-4,5-dimethylisoxazole-3-carboxamide] | 7.0
36 | Cc1nnc(C(=O)Nc2cc(C#N)ccc2N2CCC(Oc3ccc(F)cc3F)CC2)o1 [Example 132, N-(5-cyano-2-(4-(2,4-difluorophenoxy)piperidin-1-yl)phenyl)-5-methyl-1,3,4-oxadiazole-2-carboxamide] | 5.6
